From patent US10874743B2, “IRAK degraders and uses thereof” (Kymera Therapeutics, Inc., priority 2017, dated 2020)

Molecular target: T1, IRAK4 (Homo sapiens, UniProt Q9NWZ3)
T1 sequence (Q9NWZ3 1-460): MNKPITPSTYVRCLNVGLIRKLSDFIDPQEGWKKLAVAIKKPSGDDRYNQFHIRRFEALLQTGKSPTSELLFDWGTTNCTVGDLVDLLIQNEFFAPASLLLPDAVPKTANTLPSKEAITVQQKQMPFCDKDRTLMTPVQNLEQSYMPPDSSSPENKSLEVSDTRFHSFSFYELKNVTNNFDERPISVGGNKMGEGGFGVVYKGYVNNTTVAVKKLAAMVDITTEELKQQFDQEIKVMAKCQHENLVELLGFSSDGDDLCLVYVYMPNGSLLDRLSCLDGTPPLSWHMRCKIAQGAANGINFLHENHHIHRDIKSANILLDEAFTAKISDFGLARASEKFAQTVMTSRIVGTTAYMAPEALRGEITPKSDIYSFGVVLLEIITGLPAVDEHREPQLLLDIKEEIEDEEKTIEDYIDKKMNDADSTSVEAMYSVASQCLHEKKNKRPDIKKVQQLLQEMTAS
Assay: PBMC degradation assay (western blot, % IRAK4 degraded after 4 hours)
Type: cell-based
Conditions: human PBMCs
Protocol: Protocol summary of PBMC degradation studies from compound treatment through quantitation.
PBMC culture medium: Human peripheral blood mononuclear cells (PBMCs): RPMI+10% FBS (Heat-inactivated)+1% P/S.
Cells were cultured at a minimum of 2.5×10^6 c/mL. • PBMCs were incubated @ 37° C./5% CO2 and allowed to rest overnight. • Following overnight recovery, a cell count/viability assessment by trypan blue exclusion was performed. Cells densities were adjusted back to 2.5×10^6 c/mL (proceed with plating only if viability >80%). • In a 6 well plate, 2.0 mL of cells were added to each well for a minimum of 5×10^6 CT per treatment condition. Compounds dilutions were prepared from 20 mM stock and were added at a final 1000× dilution (0.1% DMSO concentration). • At the end of treatment, cells were harvested and spun @ 1800 rpm for 5 min. 1×PBS wash and spun again @ 1800 rpm for 5 min. Cell pellets were frozen and stored at −80° C. until further processing. • Lysates were generated by resuspending in lysis buffer. Protein quantification was performed with a BCA kit. • 20 μg of protein were loaded per lane and run on a 26-well 4-12% Bis-Tris SDS-page gel. • Transfers were performed on PVDF membranes using the BioRad Mixed MW turbo program for 7 min. • Membranes were blocked for one hour on a rocker at room temperature. • Primary antibodies were incubated overnight at 4° C. on a rocker. • Membranes were washed 3×TBST, 5 min each. • Secondaries were added and incubated for one hour on a rocker at room temperature. • Membranes were washed 3×TBST, 5 min each and rinsed well with deionized H2O. Membranes were scanned using the Licor Odessey CLx and bands were quantified using Image Studio Lite Version 5.2 software.
PBMC results at 4 hours. The letter codes indicate the percentage of IRAK4 degraded after 4 hours: A (>50% degradation), B (>20-50% degradation) and C (<20% degradation)

| PBMC % IRAK4 Degradation | Structure (SMILES) |
| --- | --- |
| C (<20% degradation) | NC(=O)c1nn(-c2ccc(C(=O)NCCOCCOCCOCCNC(=O)COc3cccc4c3C(=O)N(C3CCC(=O)NC3=O)C4=O)cc2)cc1NC(=O)c1coc(-c2ccnc(NCC(F)(F)F)c2)n1 (stereo not drawn) [I-108] |
| B (>20-50% degradation) | NC(=O)c1nn(-c2ccc(C(=O)NCCCCCCCCNC(=O)COc3cccc4c3C(=O)N(C3CCC(=O)NC3=O)C4=O)cc2)cc1NC(=O)c1coc(-c2ccnc(NCC(F)(F)F)c2)n1 (stereo not drawn) [I-109] |
| A (>50% degradation) | NC(=O)c1nn(-c2ccc(C(=O)NCCOCCNC(=O)COc3cccc4c3C(=O)N(C3CCC(=O)NC3=O)C4=O)cc2)cc1NC(=O)c1coc(-c2ccnc(NCC(F)(F)F)c2)n1 (stereo not drawn) [I-110] |
| B (>20-50% degradation) | NC(=O)c1nn(-c2ccc(C(=O)NCCCCNC(=O)COc3cccc4c3C(=O)N(C3CCC(=O)NC3=O)C4=O)cc2)cc1NC(=O)c1coc(-c2ccnc(NCC(F)(F)F)c2)n1 (stereo not drawn) [I-111] |
| A (>50% degradation) | NC(=O)c1nn(-c2ccc(C(=O)NCCCNC(=O)COc3cccc4c3C(=O)N(C3CCC(=O)NC3=O)C4=O)cc2)cc1NC(=O)c1coc(-c2ccnc(NCC(F)(F)F)c2)n1 (stereo not drawn) [I-112] |
| A (>50% degradation) | NC(=O)c1nn(-c2ccc(C(=O)NCCOCCCCCOCCNC(=O)COc3cccc4c3C(=O)N(C3CCC(=O)NC3=O)C4=O)cc2)cc1NC(=O)c1coc(-c2ccnc(NCC(F)(F)F)c2)n1 (stereo not drawn) [I-116, N-(3-carbamoyl-1-(4-((2-((5-(2-(2-((2-(2,6-dioxopiperidin-3-yl)-1,3-dioxoisoindolin-4-yl)oxy)acetamido)ethoxy)pentyl)oxy)ethyl)carbamoyl)phenyl)-1H-pyrazol-4-yl)-2-(2-((2,2,2-trifluoroethyl)amino)pyridin-4-yl)oxazole-4-carboxamide] |
| A (>50% degradation) | NC(=O)c1nn(-c2ccc(C(=O)NCCOCCOCCNc3cccc4c3CN(C3CCC(=O)NC3=O)C4=O)cc2)cc1NC(=O)c1coc(-c2ccnc(NCC(F)(F)F)c2)n1 (stereo not drawn) [I-117, N-(3-carbamoyl-1-(4-((2-(2-(2-((2-(2,6-dioxopiperidin-3-yl)-1-oxoisoindolin-4-yl)amino)ethoxy)ethoxy)ethyl)carbamoyl)phenyl)-1H-pyrazol-4-yl)-2-(2-((2,2,2-trifluoroethyl)amino)pyridin-4-yl)oxazole-4-carboxamide] |
| A (>50% degradation) | NC(=O)c1nn(-c2ccc(C(=O)NCCOCCOCCOCCNc3cccc4c3C(=O)N(C3CCC(=O)NC3=O)C4=O)cc2)cc1NC(=O)c1coc(-c2ccnc(NCC(F)(F)F)c2)n1 (stereo not drawn) [I-128] |
| A (>50% degradation) | NC(=O)c1nn(-c2ccc(C(=O)NCCOCCNc3cccc4c3C(=O)N(C3CCC(=O)NC3=O)C4=O)cc2)cc1NC(=O)c1coc(-c2ccnc(NCC(F)(F)F)c2)n1 (stereo not drawn) [I-130] |
| B (>20-50% degradation) | NC(=O)c1nn(-c2ccc(C(=O)NCCCCCCCCCCCNc3cccc4c3C(=O)N(C3CCC(=O)NC3=O)C4=O)cc2)cc1NC(=O)c1coc(-c2ccnc(NCC(F)(F)F)c2)n1 (stereo not drawn) [I-133] |
| C (<20% degradation) | O=C1CCC(N2C(=O)c3cccc(NCCOCCOCCNC(=O)c4ccc(-n5cc(NC(=O)c6coc(-c7ccnc(NCC(F)(F)F)c7)n6)c(C(F)(F)F)n5)cc4)c3C2=O)C(=O)N1 (stereo not drawn) [I-134] |
| A (>50% degradation) | NC(=O)c1nn(-c2ccc(C(=O)NCCCOCCCNc3cccc4c3C(=O)N(C3CCC(=O)NC3=O)C4=O)cc2)cc1NC(=O)c1coc(-c2ccnc(NCC(F)(F)F)c2)n1 (stereo not drawn) [I-141] |
| A (>50% degradation) | NC(=O)c1nn(-c2ccc(C(=O)NCCNCCCCCNc3cccc4c3C(=O)N(C3CCC(=O)NC3=O)C4=O)cc2)cc1NC(=O)c1coc(-c2ccnc(NCC(F)(F)F)c2)n1 (stereo not drawn) [I-144, N-[3-carbamoyl-1-[4-[2-[5-[[2-(2,6-dioxo-3-piperidyl)-1,3-dioxo-isoindolin-4-yl]amino]pentylamino]ethylcarbamoyl]phenyl]pyrazol-4-yl]-2-[2-(2,2,2-trifluoroethylamino)-4-pyridyl]oxazole-4-carboxamide] |
| C (<20% degradation) | NC(=O)c1nn(C2CCN(C(=O)NCCOCCOCCNc3cccc4c3C(=O)N(C3CCC(=O)NC3=O)C4=O)CC2)cc1NC(=O)c1coc(-c2ccnc(NCC(F)(F)F)c2)n1 (stereo not drawn) [I-145, N-[3-carbamoyl-1-[1-[2-[2-[2-[[2-(2,6-dioxo-3-piperidyl)-1,3-dioxo-isoindolin-4-yl]amino]ethoxy]ethoxy]ethylcarbamoyl]-4-piperidyl]pyrazol-4-yl]-2-[2-(2,2,2-trifluoroethylamino)-4-pyridyl]oxazole-4-carboxamide] |
| A (>50% degradation) | O=C1CCC(N2C(=O)c3cccc(NCCNCCCCCNC(=O)c4ccc(-n5cc(NC(=O)c6coc(-c7ccnc(NCC8CC8)c7)n6)c(C(F)(F)F)n5)cc4)c3C2=O)C(=O)N1 (stereo not drawn) [I-150] |
| C (<20% degradation) | NC(=O)c1nn(C2CCN(C(=O)COCCOCCOCCNc3cccc4c3C(=O)N(C3CCC(=O)NC3=O)C4=O)CC2)cc1NC(=O)c1coc(-c2ccnc(NCC(F)(F)F)c2)n1 (stereo not drawn) [I-152, N-[3-carbamoyl-1-[1-[2-[2-[2-[2-[[2-(2,6-dioxo-3-piperidyl)-1,3-dioxo-isoindolin-4-yl]amino]ethoxy]ethoxy]ethoxy]acetyl]-4-piperidyl]pyrazol-4-yl]-2-[2-(2,2,2-trifluoroethylamino)-4-pyridyl]oxazole-4-carboxamide] |
| B (>20-50% degradation) | NC(=O)c1nn(C2CCN(C(=O)COCCOCCNc3cccc4c3C(=O)N(C3CCC(=O)NC3=O)C4=O)CC2)cc1NC(=O)c1coc(-c2ccnc(NCC(F)(F)F)c2)n1 (stereo not drawn) [I-154] |
| C (<20% degradation) | NC(=O)c1nn(C2CCN(C(=O)COCCOCCOCCOCCNc3cccc4c3C(=O)N(C3CCC(=O)NC3=O)C4=O)CC2)cc1NC(=O)c1coc(-c2ccnc(NCC(F)(F)F)c2)n1 (stereo not drawn) [I-155] |
| C (<20% degradation) | NC(=O)c1nn(C2CN(C(=O)COCCOCCNc3cccc4c3C(=O)N(C3CCC(=O)NC3=O)C4=O)C2)cc1NC(=O)c1coc(-c2ccnc(NCC(F)(F)F)c2)n1 (stereo not drawn) [I-156] |
| C (<20% degradation) | NC(=O)c1nn(C2CN(C(=O)COCCOCCOCCOCCNc3cccc4c3C(=O)N(C3CCC(=O)NC3=O)C4=O)C2)cc1NC(=O)c1coc(-c2ccnc(NCC(F)(F)F)c2)n1 (stereo not drawn) [I-157] |
| C (<20% degradation) | NC(=O)c1nn(C2CN(C(=O)COCCOCCOCCNc3cccc4c3C(=O)N(C3CCC(=O)NC3=O)C4=O)C2)cc1NC(=O)c1coc(-c2ccnc(NCC(F)(F)F)c2)n1 (stereo not drawn) [I-158] |
| A (>50% degradation) | CN(CCOCCOCCNc1cccc2c1C(=O)N(C1CCC(=O)NC1=O)C2=O)C(=O)c1ccc(-n2cc(NC(=O)c3coc(-c4ccnc(NCC(F)(F)F)c4)n3)c(C(N)=O)n2)cc1 (stereo not drawn) [I-159, N-[3-carbamoyl-1-[4-[2-[2-[2-[[2-(2,6-dioxo-3-piperidyl)-1,3-dioxo-isoindolin-4-yl]amino]ethoxy]ethoxy]ethyl-methyl-carbamoyl]phenyl]pyrazol-4-yl]-2-[2-(2,2,2-trifluoroethylamino)-4-pyridyl]oxazole-4-carboxamide] |
| A (>50% degradation) | NC(=O)c1nn(-c2ccc(CNCCOCCOCCNc3cccc4c3C(=O)N(C3CCC(=O)NC3=O)C4=O)cc2)cc1NC(=O)c1coc(-c2ccnc(NCC(F)(F)F)c2)n1 (stereo not drawn) [I-171, N-[3-carbamoyl-1-[4-[[2-[2-[2-[[2-(2,6-dioxo-3-piperidyl)-1,3-dioxo-isoindolin-4-yl]amino]ethoxy]ethoxy]ethylamino]methyl]phenyl]pyrazol-4-yl]-2-[2-(2,2,2-trifluoroethylamino)-4-pyridyl]oxazole-4-carboxamide] |
| C (<20% degradation) | NC(=O)c1nn(-c2ccc(C(=O)NCCC#CC#CCCNc3cccc4c3C(=O)N(C3CCC(=O)NC3=O)C4=O)cc2)cc1NC(=O)c1coc(-c2ccnc(NCC(F)(F)F)c2)n1 (stereo not drawn) [I-179, N-[3-carbamoyl-1-[4-[8-[[2-(2,6-dioxo-3-piperidyl)-1,3-dioxo-isoindolin-4-yl]amino]octa-3,5-diynylcarbamoyl]phenyl]pyrazol-4-yl]-2-[2-(2,2,2-trifluoroethylamino)-4-pyridyl]oxazole-4-carboxamide] |
